Tests used:
[1] = tested on: primary human mesenchymal stem cells (hMSCs); experiment: Induction of chondrogenesis in hMSCs (nodule area, Rhodamine B / Nile Red); type: cell-based; conditions: TGF-β3 as positive control; for Emax: read-out: Max. Activity as % TGF-β3 activity; for EC50: concentration required to induce 50% levels of chondrogenesis, read-out: Conc (nM) of 50% TGF-β3 activity
Method: Representative compounds were screened using primary human mesenchymal stem cells (hMSCs) to determine their ability to induce chondrogenesis (process by which cartilage is developed).
Primary human mesenchymal stem cells (hMSCs) were purchased from Lonza (Walkersville, Md.) and expanded in Mesenchymal Stem Cell Growth Media (Lonza). Cells between passage 3 and 6 were used for the experiments.
Each compound was dissolved in DMSO as a 10 mM stock and used to prepare compound source plates. For the 96 well assay, serial dilution (1:3, 6-point dose-response curves from 2700 nM to 10 nM) and compound transfer was performed using the ECHO 550 (Labcyte, Sunnyvale, Calif.) into 96-well clear bottom assay plates (Greiner Bio-One) with appropriate DMSO backfill for a final DMSO concentration of 0.03%. hMSCs were plated at 20,000 cells/well in 250 μL/well Incomplete Chondrogenic Induction Medium (Lonza; DMEM, dexamethasone, ascorbate, insulin-transferrin-selenium [ITS supplement], gentamycin-amphotericin [GA-1000], sodium pyruvate, proline and L-glutamine). TGF-β3 (10 ng/mL) was used as a positive control for differentiation while negative control wells were treated with 75 nL DMSO for normalization and calculating EC50 values. For the 384 well assay, serial dilution (1:3, 8-point dose-response curves from 5000 nM to 2.2 nM) and compound transfer was performed using the ECHO 550 (Labcyte, Sunnyvale, Calif.) into 384-well clear bottom assay plates (Greiner Bio-One) with appropriate DMSO backfill for a final DMSO concentration of 0.03%. hMSCs were plated at 8,000 cells/well in 80 μL/well Incomplete Chondrogenic Induction Medium (Lonza; DMEM, dexamethasone, ascorbate, insulin-transferrin-selenium [ITS supplement], gentamycin-amphotericin [GA-1000], sodium pyruvate, proline and L-glutamine). TGF-β3 (10 ng/mL) was used as a positive control for differentiation while negative control wells were treated with 25 nL DMSO for normalization and calculating EC50 values. Cells were incubated at 37° C. and 5% CO2 for 6 days. To image chondrogenic nodules, the cells were fixed using 4% formaldehyde (Electron Microscopy Sciences), and stained with 2 μg/mL Rhodamine B (Sigma-Aldrich) and 20 μM Nile Red (Sigma-Aldrich) [Johnson K., et. al, A Stem Cell-Based Approach to Cartilage Repair, Science, (2012), 336(6082), 717-721]. The nodules imaged (25 images per well for 96 well plates and 9 images per well for 384 well plates at 10× magnification) by excitation at 531 nm and emission at 625 nm and quantified using the CellInsight CX5 (Thermo Scientific). Area of nodules in each well was normalized to the average of 3 DMSO treated wells on the same plate using Excel (Microsoft Inc.). The normalized averages (fold change over DMSO) of 2 or 3 replicate wells for each compound concentration were calculated. Due to solubility limitations of some of the compounds, curve fitting was incomplete leading to inaccurate EC50 determinations.
Using TGF-β3 as a positive control, the concentration of representative compounds required to induce 50% levels of chondrogenesis is reported. In addition, the maximum activity of each compound and the respective dose that each compound reached maximum chondrogenesis activity is reported.

[2] = tested on: Primary human fibroblasts derived from IPF patients (LL29 cells) treated with TGF-β1; experiment: Inhibition of the fibrotic process: αSMA staining in TGF-β1 treated fibroblasts; type: cell-based; conditions: Fibroblast, 96 h, LL29 fibroblasts treated with TGF-β1, 4 days; for inhibition at 10 µM: read-out: percent inhibition in brackets beside EC50 >10 μM
Summary of the method: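 LL29 IPF-patient lung fibroblasts in 1% FBS F12 were given compounds (11-point, 10 μM to […], 0.1% DMSO) plus TGF-β1 20 ng/mL for 4 days at 37 °C. αSMA-positive fraction of live (SYTOX-negative) cells was imaged and normalized to TGF-β1/DMSO wells. EC50 by non-linear regression, or % inhibition at 10 μM if >10 μM.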

Row | Compound | Emax [1] | EC50 [2] | EC50 [1] | inhibition at 10 µM [2]
1 | COc1cccc(-c2nccc3[nH]c(-c4n[nH]c5ccc(-c6cncc(NC(=O)Cc7ccccc7)c6)nc45)nc23)c1 [Compound 1000, N-(5-(3-(4-(3-methoxyphenyl)-1H-imidazo[4,5-c]pyridin-2-yl)-1H-pyrazolo [4,3-b]pyridin-5-yl)pyridin-3-yl)-2-phenylacetamide] | 41% | 2550 nM | – | –
2 | CC(C)(C)C(=O)Nc1cncc(-c2ccc3[nH]nc(-c4nc5c(-c6ccc(F)cc6)nccc5[nH]4)c3n2)c1 [Compound 36, N-(5-(3-(4-(4-Fluorophenyl)-1H-imidazo[4,5-c]pyridin-2-yl)-1H-pyrazolo [4,3-b]pyridin-5-yl)pyridin-3-yl)pivalamide] | 56% | 1280 nM | 10 nM | –
3 | CC(C)CC(=O)Nc1cncc(-c2ccc3[nH]nc(-c4nc5c(-c6ccc(Cl)s6)nccc5[nH]4)c3n2)c1 [Compound 1037, N-(5-(3-(4-(5-Chlorothiophen-2-yl)-1H-imidazo[4,5-c]pyridin-2-yl)-1H-pyrazolo [4,3-b]pyridin-5-yl)pyridin-3-yl)-3-methylbutanamide] | 104% | 776 nM | 10 nM | –
4 | CC(C)C(=O)Nc1cncc(-c2ccc3[nH]nc(-c4nc5c(-c6cccnc6)nccc5[nH]4)c3n2)c1 [Compound 93, N-(5-(3-(4-(Pyridin-3-yl)-1H-imidazo[4,5-c]pyridin-2-yl)-1H-pyrazolo[4,3-b]pyridin-5-yl)pyridin-3-yl)isobutyramide] | 32% | 2010 nM | – | –
5 | CC(C)Nc1cncc(-c2ccc3[nH]nc(-c4nc5c(-c6ccoc6)nccc5[nH]4)c3n2)c1 [Compound 320, 5-(3-(4-(Furan-3-yl)-1H-imidazo[4,5-c]pyridin-2-yl)-1H-pyrazolo[4,3-b]pyridin-5-yl)-N-isopropylpyridin-3-amine] | 76% | 170 nM | 30 nM | –
6 | Cn1cc(-c2ccc3[nH]nc(-c4nc5c(-c6cc(F)cc(CNS(C)(=O)=O)c6)nccc5[nH]4)c3n2)cn1 [Compound 764, N-(3-Fluoro-5-(2-(5-(1-methyl-1H-pyrazol-4-yl)-1H-pyrazolo [4,3-b]pyridin-3-yl)-1H-imidazo[4,5-c]pyridin-4-yl)benzyl)methanesulfonamide] | – | 1060 nM | – | –
7 | O=C(Nc1cncc(-c2ccc3[nH]nc(-c4nc5c(-c6ccccc6F)nccc5[nH]4)c3n2)c1)C1CCCC1 [Compound 78, N-(5-(3-(4-(2-Fluorophenyl)-1H-imidazo[4,5-c]pyridin-2-yl)-1H-pyrazolo [4,3-b]pyridin-5-yl)pyridin-3-yl)cyclopentanecarboxamide] | – | > 10000 nM | – | 0%
8 | COc1cccc(-c2nccc3[nH]c(-c4n[nH]c5ccc(-c6cncc(O)c6)nc45)nc23)c1 [Compound 1030, 5-(3-(4-(3-Methoxyphenyl)-1H-imidazo[4,5-c]pyridin-2-yl)-1H-pyrazolo [4,3-b]pyridin-5-yl)pyridin-3-ol] | – | 9700 nM | – | –
9 | Cc1ccc(-c2nccc3[nH]c(-c4n[nH]c5ccc(-c6cncc(OC7CCCCC7)c6)nc45)nc23)s1 [Compound 735, 5-(5-(Cyclohexyloxy)pyridin-3-yl)-3-(4-(5-methylthiophen-2-yl)-1H-imidazo[4,5-c]pyridin-2-yl)-1H-pyrazolo[4,3-b]pyridine] | – | 958 nM | – | –
10 | c1cc2[nH]c(-c3n[nH]c4ccc(-c5cncc(OC6CCNCC6)c5)nc34)nc2cn1 [Compound 656, 3-(1H-Imidazo[4,5-c]pyridin-2-yl)-5-(5-(piperidin-4-yloxy)pyridin-3-yl)-1H-pyrazolo[4,3-b]pyridine] | – | 3330 nM | – | –
11 | Cc1ncc(-c2ccc3[nH]nc(-c4nc5c(-c6ccoc6)nccc5[nH]4)c3n2)n1C [Compound 685, 5-(1,2-Dimethyl-1H-imidazol-5-yl)-3-(4-(furan-3-yl)-1H-imidazo[4,5-c]pyridin-2-yl)-1H-pyrazolo[4,3-b]pyridine] | – | 5300 nM | – | –
12 | CN1CCN(c2nccc3[nH]c(-c4n[nH]c5ccc(-c6cncc(NC(=O)C7CCCC7)c6)nc45)nc23)CC1 [Compound 246, N-(5-(3-(4-(4-Methylpiperazin-1-yl)-1H-imidazo[4,5-c]pyridin-2-yl)-1H-pyrazolo [4,3-b]pyridin-5-yl)pyridin-3-yl)cyclopentanecarboxamide] | – | 5260 nM | – | –
13 | CN(C)CCNc1cc(F)cc(-c2nccc3[nH]c(-c4n[nH]c5ccc(-c6cnccn6)nc45)nc23)c1 [Compound 792, N^1-(3-Fluoro-5-(2-(5-(pyrazin-2-yl)-1H-pyrazolo[4,3-b]pyridin-3-yl)-1H-imidazo[4,5-c]pyridin-4-yl)phenyl)-N^2,N^2-dimethylethane-1,2-diamine] | – | > 10000 nM | – | 0%
14 | CN(C)CCNc1cc(F)cc(-c2nccc3[nH]c(-c4n[nH]c5ccc(-c6cncc(OCCN7CCCC7)c6)nc45)nc23)c1 [Compound 786, N^1-(3-Fluoro-5-(2-(5-(5-(2-(pyrrolidin-1-yl)ethoxy)pyridin-3-yl)-1H-pyrazolo[4,3-b]pyridin-3-yl)-1H-imidazo[4,5-c]pyridin-4-yl)-5phenyl)-N^2,N^2-dimethylethane-1,2-diamine] | – | > 10000 nM | – | 0%
15 | COc1cccc(-c2nccc3[nH]c(-c4n[nH]c5ccc(-c6cncc(OC7CCNCC7)c6)nc45)nc23)c1 [Compound 1025, 3-(4-(3-Methoxyphenyl)-1H-imidazo[4,5-c]pyridin-2-yl)-5-(5-(piperidin-4-yloxy)pyridin-3-yl)-1H-pyrazolo[4,3-b]pyridine] | – | 3330 nM | – | –
16 | COc1cccc(-c2nccc3[nH]c(-c4n[nH]c5ccc(-c6cn[nH]c6)nc45)nc23)c1 [Compound 1020, 3-(4-(3-Methoxyphenyl)-1H-imidazo[4,5-c]pyridin-2-yl)-5-(1H-pyrazol-4-yl)-1H-pyrazolo[4,3-b]pyridine] | – | > 10000 nM | – | 0%
17 | Cc1ccc(-c2nccc3[nH]c(-c4n[nH]c5ccc(C6=CCNCC6)nc45)nc23)s1 [Compound 730, 3-(4-(5-Methylthiophen-2-yl)-1H-imidazo[4,5-c]pyridin-2-yl)-5-(1,2,3,6-tetrahydropyridin-4-yl)-1H-pyrazolo[4,3-b]pyridine] | – | 6160 nM | – | –
18 | O=C(Nc1cncc(-c2ccc3[nH]nc(-c4nc5c(-c6ccccn6)nccc5[nH]4)c3n2)c1)c1ccccc1 [Compound 151, N-(5-(3-(4-(Pyridin-2-yl)-1H-imidazo[4,5-c]pyridin-2-yl)-1H-pyrazolo[4,3-b]pyridin-5-yl)pyridin-3-yl)benzamide] | – | > 10000 nM | – | 0%
19 | Fc1ccccc1-c1nccc2[nH]c(-c3n[nH]c4ccc(-c5cncc(CNCC6CCCC6)c5)nc34)nc12 [Compound 81, 1-Cyclopentyl-N-((5-(3-(4-(2-fluorophenyl)-1H-imidazo[4,5-c]pyridin-2-yl)-1H-pyrazolo[4,3-b]pyridin-5-yl)pyridin-3-yl)methyl)methanamine] | – | 1280 nM | – | –
20 | O=C(Cc1ccccc1)Nc1cncc(-c2ccc3[nH]nc(-c4nc5cnccc5[nH]4)c3n2)c1 [Compound 262, N-(5-(3-(1H-imidazo[4,5-c]pyridin-2-yl)-1H-pyrazolo[4,3-b]pyridin-5-yl)pyridin-3-yl)-2-phenylacetamide] | – | > 10000 nM | – | 0%
21 | c1cc2[nH]c(-c3n[nH]c4ccc(C5CCNCC5)nc34)nc2c(-c2ccc3c(c2)OCO3)n1 [Compound 1108, 3-(4-(Benzo[d][1,3]dioxol-5-yl)-1H-imidazo[4,5-c]pyridin-2-yl)-5-(piperidin-4-yl)-1H-pyrazolo[4,3-b]pyridine] | – | > 10000 nM | – | 43.7%
